Data reported in patent publication US10670605B2, “Cysteine reactive probes and uses thereof” (The Scripps Research Institute, priority 2015, dated 2020).

Tests used:
Assay in all cases: Competitive isoTOP-ABPP in situ (fragment-treated cells)
Format in all cases: cell-based
[1] = target: T1, cysteines in MDA-MB-231 and Ramos cells (Homo sapiens, UniProt O00244); conditions: 200 μM, insitu, 231
T1 sequence (O00244 1-68): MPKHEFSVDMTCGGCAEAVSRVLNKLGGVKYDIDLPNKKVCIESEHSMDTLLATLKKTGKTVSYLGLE

[2] = target: cysteines in MDA-MB-231 and Ramos cells (Homo sapiens, UniProt O75362); conditions: 200 μM, insitu, 231
[3] = target: cysteines in MDA-MB-231 and Ramos cells (Homo sapiens, UniProt P07858); conditions: for isoTOP-ABPP ratio P07858_C211: 200 μM, insitu, 231
[4] = target: T2, cysteines in MDA-MB-231 and Ramos cells (Homo sapiens, UniProt P29590); conditions: for isoTOP-ABPP ratio P29590_C389: 200 μM, insitu, 231
T2 sequence (P29590 1-882): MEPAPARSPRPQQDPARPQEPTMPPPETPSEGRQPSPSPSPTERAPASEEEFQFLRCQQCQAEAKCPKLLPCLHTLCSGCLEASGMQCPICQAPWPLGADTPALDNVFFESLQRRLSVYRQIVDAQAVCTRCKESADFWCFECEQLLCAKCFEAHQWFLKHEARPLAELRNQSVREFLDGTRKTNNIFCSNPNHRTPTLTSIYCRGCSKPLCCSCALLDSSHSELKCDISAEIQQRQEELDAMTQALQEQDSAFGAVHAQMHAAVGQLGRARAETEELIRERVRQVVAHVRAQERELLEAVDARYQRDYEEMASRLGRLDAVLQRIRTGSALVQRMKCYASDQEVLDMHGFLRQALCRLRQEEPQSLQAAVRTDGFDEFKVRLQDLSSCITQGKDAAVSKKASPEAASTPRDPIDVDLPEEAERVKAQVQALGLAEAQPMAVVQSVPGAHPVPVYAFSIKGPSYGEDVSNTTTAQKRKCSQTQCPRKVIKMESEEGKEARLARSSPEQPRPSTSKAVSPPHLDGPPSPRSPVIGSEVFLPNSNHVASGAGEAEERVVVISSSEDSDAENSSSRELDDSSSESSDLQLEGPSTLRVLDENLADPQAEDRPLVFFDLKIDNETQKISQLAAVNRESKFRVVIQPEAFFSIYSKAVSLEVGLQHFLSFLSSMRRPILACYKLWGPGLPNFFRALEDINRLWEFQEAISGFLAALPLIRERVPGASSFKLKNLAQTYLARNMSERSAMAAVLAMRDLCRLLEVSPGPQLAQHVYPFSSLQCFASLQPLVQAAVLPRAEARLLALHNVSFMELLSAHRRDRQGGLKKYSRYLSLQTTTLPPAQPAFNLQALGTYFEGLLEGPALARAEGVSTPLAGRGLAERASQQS

[5] = target: T3, cysteines in MDA-MB-231 and Ramos cells (Homo sapiens, UniProt Q96F86); conditions: for isoTOP-ABPP ratio Q96F86_C413: 200 μM, insitu
T3 sequence (Q96F86 1-508): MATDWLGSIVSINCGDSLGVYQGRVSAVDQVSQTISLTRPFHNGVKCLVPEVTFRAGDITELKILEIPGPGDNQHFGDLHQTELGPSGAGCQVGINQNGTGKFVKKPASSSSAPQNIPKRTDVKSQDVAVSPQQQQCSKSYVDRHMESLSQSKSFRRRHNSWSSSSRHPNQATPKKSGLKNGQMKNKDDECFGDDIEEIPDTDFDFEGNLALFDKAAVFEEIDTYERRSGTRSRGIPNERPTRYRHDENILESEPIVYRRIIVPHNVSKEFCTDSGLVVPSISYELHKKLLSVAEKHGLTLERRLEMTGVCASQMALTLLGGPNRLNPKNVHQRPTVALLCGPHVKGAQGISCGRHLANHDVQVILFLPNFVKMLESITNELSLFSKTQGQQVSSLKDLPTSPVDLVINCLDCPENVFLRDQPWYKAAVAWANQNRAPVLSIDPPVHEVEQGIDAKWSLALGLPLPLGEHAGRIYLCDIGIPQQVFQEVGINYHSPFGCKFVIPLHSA

[6] = target: cysteines in MDA-MB-231 and Ramos cells (Homo sapiens, UniProt Q9Y3D2)
[7] = target: T4, cysteines in MDA-MB-231 and Ramos cells (Homo sapiens, UniProt Q9NX18); conditions: for isoTOP-ABPP ratio Q9NX18_C83: 200 μM, insitu, 231
T4 sequence (Q9NX18 30-166): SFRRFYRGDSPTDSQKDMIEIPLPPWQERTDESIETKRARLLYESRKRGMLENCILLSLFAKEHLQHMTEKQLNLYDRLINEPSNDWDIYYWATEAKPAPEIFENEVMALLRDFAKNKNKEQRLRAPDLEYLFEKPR

[8] = target: T5, cysteines in MDA-MB-231 and Ramos cells (Homo sapiens, UniProt Q86W42); conditions: 200 μM, insitu, 231
T5 sequence (Q86W42 1-341): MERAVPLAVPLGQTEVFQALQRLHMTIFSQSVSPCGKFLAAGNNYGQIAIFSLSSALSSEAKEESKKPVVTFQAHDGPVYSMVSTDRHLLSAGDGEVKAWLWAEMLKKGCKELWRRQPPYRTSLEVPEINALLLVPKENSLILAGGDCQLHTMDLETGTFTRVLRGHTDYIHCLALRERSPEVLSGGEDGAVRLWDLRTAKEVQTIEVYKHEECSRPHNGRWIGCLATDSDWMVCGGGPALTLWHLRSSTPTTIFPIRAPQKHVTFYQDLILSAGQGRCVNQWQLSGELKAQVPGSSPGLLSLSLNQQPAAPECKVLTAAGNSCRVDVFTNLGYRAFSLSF

[9] = target: T6, cysteines in MDA-MB-231 and Ramos cells (Homo sapiens, UniProt Q8NFH5); conditions: for isoTOP-ABPP ratio Q8NFH5_C255: 200 μM, insitu, 231
T6 sequence (Q8NFH5 1-326): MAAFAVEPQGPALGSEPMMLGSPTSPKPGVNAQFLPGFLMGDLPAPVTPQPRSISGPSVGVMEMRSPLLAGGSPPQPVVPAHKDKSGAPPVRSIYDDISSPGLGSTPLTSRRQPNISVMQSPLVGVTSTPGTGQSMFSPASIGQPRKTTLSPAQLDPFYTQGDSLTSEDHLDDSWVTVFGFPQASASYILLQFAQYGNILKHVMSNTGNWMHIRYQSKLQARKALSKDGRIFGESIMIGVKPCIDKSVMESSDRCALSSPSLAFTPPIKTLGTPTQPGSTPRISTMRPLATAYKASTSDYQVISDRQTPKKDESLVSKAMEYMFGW

[10] = target: cysteines in MDA-MB-231 and Ramos cells (Homo sapiens, UniProt Q9BRJ7)
[11] = target: cysteines in MDA-MB-231 and Ramos cells (Homo sapiens, UniProt P49189); conditions: 200 μM, insitu, 231
cysteines in MDA-MB-231 and Ramos cells (Homo sapiens, UniProt P49189), sequence (P49189 whole entry): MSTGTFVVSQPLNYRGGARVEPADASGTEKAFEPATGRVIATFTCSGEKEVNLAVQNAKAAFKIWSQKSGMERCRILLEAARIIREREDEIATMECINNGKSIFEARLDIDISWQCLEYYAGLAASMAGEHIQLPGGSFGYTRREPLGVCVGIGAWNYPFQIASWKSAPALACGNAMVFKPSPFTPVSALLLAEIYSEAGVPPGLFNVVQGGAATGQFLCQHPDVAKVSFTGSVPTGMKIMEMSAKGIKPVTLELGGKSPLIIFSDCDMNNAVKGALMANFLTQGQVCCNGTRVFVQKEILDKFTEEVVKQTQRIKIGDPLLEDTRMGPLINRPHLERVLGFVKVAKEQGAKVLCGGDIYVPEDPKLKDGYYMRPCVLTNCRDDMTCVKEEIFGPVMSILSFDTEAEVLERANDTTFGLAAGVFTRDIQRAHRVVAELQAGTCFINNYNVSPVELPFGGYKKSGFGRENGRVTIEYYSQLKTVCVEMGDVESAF

cysteines in MDA-MB-231 and Ramos cells (Homo sapiens, UniProt Q9Y3D2), sequence (Q9Y3D2 21-182): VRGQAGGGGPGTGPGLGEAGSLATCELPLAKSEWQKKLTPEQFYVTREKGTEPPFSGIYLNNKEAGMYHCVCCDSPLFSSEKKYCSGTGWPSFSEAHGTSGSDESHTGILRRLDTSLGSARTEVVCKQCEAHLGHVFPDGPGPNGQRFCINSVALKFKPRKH
cysteines in MDA-MB-231 and Ramos cells (Homo sapiens, UniProt Q9BRJ7), sequence (Q9BRJ7 whole entry): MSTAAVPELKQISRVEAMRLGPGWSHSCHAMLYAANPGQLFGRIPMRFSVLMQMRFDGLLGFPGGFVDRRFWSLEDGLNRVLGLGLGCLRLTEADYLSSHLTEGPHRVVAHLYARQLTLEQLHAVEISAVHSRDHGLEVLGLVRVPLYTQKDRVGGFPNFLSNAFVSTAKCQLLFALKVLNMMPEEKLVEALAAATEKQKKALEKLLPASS
cysteines in MDA-MB-231 and Ramos cells (Homo sapiens, UniProt O75362), sequence (O75362 whole entry): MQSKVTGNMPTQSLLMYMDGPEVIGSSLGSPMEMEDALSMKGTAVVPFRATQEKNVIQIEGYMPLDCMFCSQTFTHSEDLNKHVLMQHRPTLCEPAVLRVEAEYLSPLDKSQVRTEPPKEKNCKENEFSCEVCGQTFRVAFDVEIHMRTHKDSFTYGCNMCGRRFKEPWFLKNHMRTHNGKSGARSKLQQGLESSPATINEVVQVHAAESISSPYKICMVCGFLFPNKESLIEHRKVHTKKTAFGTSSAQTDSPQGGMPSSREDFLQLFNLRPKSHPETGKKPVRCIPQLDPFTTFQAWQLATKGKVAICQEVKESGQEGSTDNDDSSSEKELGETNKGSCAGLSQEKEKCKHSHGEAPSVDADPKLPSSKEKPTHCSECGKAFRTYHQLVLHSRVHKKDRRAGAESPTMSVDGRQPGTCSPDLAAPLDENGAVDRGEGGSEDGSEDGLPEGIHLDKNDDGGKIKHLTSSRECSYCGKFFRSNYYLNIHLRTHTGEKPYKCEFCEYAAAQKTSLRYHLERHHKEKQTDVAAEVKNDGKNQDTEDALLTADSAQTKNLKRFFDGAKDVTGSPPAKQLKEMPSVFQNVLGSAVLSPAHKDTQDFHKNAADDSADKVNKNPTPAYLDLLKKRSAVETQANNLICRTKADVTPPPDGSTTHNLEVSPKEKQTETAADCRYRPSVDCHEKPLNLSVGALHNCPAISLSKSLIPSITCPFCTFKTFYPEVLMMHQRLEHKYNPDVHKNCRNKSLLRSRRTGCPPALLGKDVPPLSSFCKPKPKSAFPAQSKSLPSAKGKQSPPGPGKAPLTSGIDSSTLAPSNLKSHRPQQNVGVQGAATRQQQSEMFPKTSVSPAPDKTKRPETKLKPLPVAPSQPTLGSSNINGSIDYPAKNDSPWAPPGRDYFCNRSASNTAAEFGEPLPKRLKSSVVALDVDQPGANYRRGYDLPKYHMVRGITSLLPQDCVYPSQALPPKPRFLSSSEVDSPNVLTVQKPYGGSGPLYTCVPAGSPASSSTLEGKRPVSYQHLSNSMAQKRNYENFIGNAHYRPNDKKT

Compound	isoTOP-ABPP ratio O75362_C286 [2]	isoTOP-ABPP ratio P07858_C211 [3]	isoTOP-ABPP ratio P29590_C389 [4]	isoTOP-ABPP ratio Q96F86_C413 [5]; 231	isoTOP-ABPP ratio Q9Y3D2_C105 ([6]; 200 μM, insitu, 231)	isoTOP-ABPP ratio Q9NX18_C83 [7]	isoTOP-ABPP ratio Q86W42_C35 [8]	isoTOP-ABPP ratio Q9BRJ7_C88 ([10]; 200 μM, insitu, 231)	isoTOP-ABPP ratio Q8NFH5_C255 [9]	isoTOP-ABPP ratio P49189_C288 [11]	further results
CC(C)CCOCCNC(=O)CCl [compound 27]	1.0	0.8	0.5	0.7	1.5	1.5	1.3				isoTOP-ABPP ratio O00244_C12 [1]: 0.4; reactivity profile of liganded cysteine P29590_C213 with fragment electrophile (isoTOP-ABPP ratio) ([4]; cysteine P29590_C213, fragment 200 μM, in situ, 231 (MDA-MB-231) cells): 0.8
COc1cc2c(cc1OC)CN(C(=O)CCl)CC2 [compound 8]											isoTOP-ABPP reactivity Q9Y3D2_C105 MSRB2 ([6]; 200 μM, insitu, 231): 20.0
COc1ccc(C2CC(c3cccs3)=NN2C(=O)CCl)cc1 (stereo not shown) [compound 4]											isoTOP-ABPP reactivity Q8NFH5_C255 NUP35 ([9]; 100 μM in situ 231): 3.9; isoTOP-ABPP reactivity Q9BRJ7_C88 NUDT16L1 ([10]; 100 μM in situ 231): 20.0; isoTOP-ABPP reactivity P07858_C211 CTSB ([3]; 100 μM in situ 231): 2.3; isoTOP-ABPP reactivity Q96F86_C413 EDC3 ([5]; 100 μM in situ 231): 20.0; isoTOP-ABPP reactivity Q9Y3D2_C105 MSRB2 ([6]; 100 μM in situ 231): 20.0; isoTOP-ABPP reactivity Q9NX18_C83 SDHAF2 ([7]; 100 μM in situ 231): 3.0
O=C(CCl)Nc1cccc2ncccc12 [compound 51]			0.9	20.0		1.0	1.4	1.0			
COc1ccccc1OCCNC(=O)CCl [compound 28]	0.9						1.3	1.7			
O=C(CCl)N1CCN(S(=O)(=O)c2ccccc2F)CC1 [compound 10]	2.6	7.4	7.9	20.0		4.4			3.5	20.0	isoTOP-ABPP ratio, cysteine Q9BRJ7_C88 ([10]; 200 μM, insitu, 231): 20.0; isoTOP-ABPP ratio, cysteine O00244_C12 [1]: 2.1; isoTOP-ABPP ratio Q96F86_C413 ([5]; ramos): 20.0; isoTOP-ABPP ratio, cysteine Q9Y3D2_C105 ([6]; 200 μM, insitu, 231): 20.0
CC1CCc2ccccc2N1C(=O)CCl (stereo not shown) [compound 45]	20.0	2.4	3.4	20.0	20.0	3.7	20.0	1.6	5.5	20.0	
Cc1ccc(C=C(C#N)C(=O)NCCN2CCOCC2)cc1 [compound 41]	1.0	0.4	0.4		1.2		1.1		0.8	0.8	
